Reference: patent US5296492A, “Certain chroman derivatives useful for treating symptoms caused by contraction of smooth muscles, circulatory diseases or epilepsy” (Nippon Kayaku Kabushiki Kaisha, priority 1991, dated 1994)
Like-named read-outs stand apart in the source and are kept apart here.

Columns and labels:
rat aorta = assay: Spasmolytic effect in isolated rat aorta; format: cell-based, male SD rat; details: 20 mM KCl contraction, 37° C., maximal inhibition with papaverine hydrochloride 10^-4 M = 100, mean value±standard error, n = 3, read-out: -log IC50 (spasmolytic effect on rat aorta contracted with 20 mM KCl) (converted)
Procedure: (§1) 1. Spasmolytic effect in isolated rat aorta and dog coronary artery
The thoracic aorta of male SD rat was isolated and cut into 3 mm wide ring preparations. Each preparation was mounted in a 10 ml organ bath filled with Krebs-Henseleit solution by applying a resting tension of 1.0 g. The nutrient solution was maintained at 37° C. and aerated with a 95% O2 /5% CO2 gas. The isometric tension of the preparation was measured with a FD pickup and recorded on a recorder.
(§2) After about one hour of equilibration time, a compound of this invention was cumulatively administered to the preparation contracted with 20 mM KCl, and its spasmolytic effect was examined. The spasmolytic action of the compound of this invention was expressed as percentage of inhibition, taking the maximal inhibition obtained with papavarine hydrochloride (10^-4 M) as 100. The IC50 value (50% inhibition) for the compound of this invention was determined from the concentration-response curve fitted by non-linear regressions with a personal computer, and its potency expressed in terms of -log IC50 was shown as [mean value±standard error].

dog coronary artery = assay: Spasmolytic effect in isolated dog coronary artery; format: cell-based, mongrel dogs; details: for spasmolytic effect on a contraction caused by 80 mM KCl (in words): potencies compared with 20 mM KCl; for IC50: Canis lupus familiaris, mean value±standard error
Procedure: as §1, §2
Ring preparations of coronary artery from mongrel dogs of either sex were prepared and isometric tension of the preparation was measured by the same method as above, except that the resting tension was adjusted to 1.5 g. For estimating the mechanism of action, the effect on the contraction caused by 80 mM KCl was also studied.

[1] = Acute toxicity in mice (up and down method); details: mouse, in vivo, iv
Procedure: Acute toxicity of the test drug was evaluated in mice, following intravenous administration. The LD50 of the test drug was determined using up and down method.

guinea-pig trachea = assay: Bronchodilator effect in isolated tracheal smooth muscle (guinea-pig trachea, leukotriene D4 contraction); format: cell-based, Hartley male guinea-pigs
Procedure: 2. Bronchodilator effect in isolated tracheal smooth muscle
Hartley male guinea-pigs (NISSEIKEN) were stunned by a blow to the head and their tracheas were removed. Each trachea was carefully made into 20 small pieces so as not to injure them, and five pieces of them were linked together with a yarn to prepare tracheal strip chain. The preparation was suspended in 15 ml of an organ bath filled with a modified Krebs-Henseleitsolution containing indomethacin (b 5×10^-6 M) by applying a tension of 0.5 g. The solution was maintained at 35° C. and aerated with a 95% O2 /5% CO2 gas. After an equilibration time of one hour, the experiment was carried out. The results were isometrically recorded on a Multipen Recorder (R-64VL, mfd. by Rika Denki Kogyo) through a transducer (TD-112S, mfd. by Nihon Kohden) and an input box (JD-112S, mfd. by Nihon Kohden).
Each preparation was made to attain the maximal contraction with carbachol (3×10^-6 and 10^-5 M) and washed. When it reached an equilibrium, it was exposed to L-cysteine as an aminopeptidase inhibitor (3×10^-3 M). After thirty minutes, a contractive reaction was made to take place with leukotriene D4 (3×10^-9 M). When the contraction had reached a constant value, a test drug (10^-8 to 3×10^-5 M) was cumulatively applied into the bath at a dose ratio of 3. Finally, the maximal relaxation of each preparation was confirmed with papaverine.
The relaxations given by each test drug at various concentrations were converted to percentages of relaxation, taking the maximal relaxation obtained with papaverine as 100. The maximal relaxation (%) of each test drug and -log of ED30 (M) which is the dose of each test drug giving a percentage of relaxation of 30% as determined by a linear regression method from percentages of relaxation at two different doses are shown below.

[2] = 20 mM KCl contraction, n = 3 (n = 4 for Compound No. 81), read-out: -log IC50 (spasmolytic effect on dog coronary artery, 20 mM KCl) (converted)
[3] = 80 mM KCl contraction, n = 3, read-out: -log IC50 (spasmolytic effect on dog coronary artery, 80 mM KCl) (converted)

Structure (SMILES) | IC50 (rat aorta) [nM] | other results
CC(O[N+](=O)[O-])c1ccn(C2=CC(C)(C)Oc3ccc(C#N)cc32)c(=O)c1 (centres unmarked) [Compound No. 72, 6-cyano-2,2-dimethyl-4-{1,2-dihydro-2-oxo-4-(1-nitroxyethyl)-1-pyridinyl}-2H-benzo[b]pyran] | 67.6 | 
CC1(C)C=C(n2ccc(C=O)cc2=O)c2cc(C#N)ccc2O1 [Compound No. 191, 6-cyano-2,2-dimethyl-4-(1,2-dihydro-2-oxo-4-formyl-1-pyridinyl)-2H-benzo[b]pyran] | 447 | 
CC1(C)C=C(n2ccc(C(CCO[N+](=O)[O-])O[N+](=O)[O-])cc2=O)c2cc(C#N)ccc2O1 (centres unmarked) [Compound No. 91, 6-cyano-2,2-dimethyl-4-{1,2-dihydro-2-oxo-4-(1,3-dinitroxypropyl)-1-pyridinyl}-2H-benzo[b]pyran] | 102 | 
CC1(C)C=C(n2ccc(CCCCO)cc2=O)c2cc(C#N)ccc2O1 [Compound No. 193, 6-cyano-2,2-dimethyl-4-{1,2-dihydro-2-oxo-4-(4-hydroxybutyl)-1-pyridinyl}-2H-benzo[b]pyran] | 1350 | 
C=Cc1ccn(C2=CC(C)(C)Oc3ccc(C#N)cc32)c(=O)c1 [Compound No. 190, 6-cyano-2,2-dimethyl-4-(1,2-dihydro-2-oxo-4-vinyl-1-pyridinyl)-2H-benzo[b]pyran] | 60.3 | 
CC(=O)O[C@H]1[C@H](n2ccc(CO[N+](=O)[O-])cc2=O)c2cc(C#N)ccc2OC1(C)C (relative stereo) [Compound No. 44, trans-3-acetoxy-6-cyano-3,4-dihydro-2,2-dimethyl-4-(1,2-dihydro-2-oxo-4-nitroxymethyl-1-pyridinyl)-2H-benzo[b]pyran] | 6610 | 
CC1(C)C=C(n2cccc(CO)c2=O)c2cc(C#N)ccc2O1 [Compound No. 160, 6-cyano-2,2-dimethyl-4-(1,2-dihydro-2-oxo-3-hydroxymethyl-1-pyridinyl)-2H-benzo[b]pyran] | 813 | 
CC1(C)C=C(n2cc(CO[N+](=O)[O-])ccc2=O)c2cc(C#N)ccc2O1 [Compound No. 70, 6-cyano-2,2-dimethyl-4-(1,2-dihydro-2-oxo-5-nitroxymethyl-1-pyridinyl)-2H-benzo[b]pyran] | 135 | 
CC1(C)C=C(n2ccc(CCCCO[N+](=O)[O-])cc2=O)c2cc(C#N)ccc2O1 [Compound No. 81, 6-cyano-2,2-dimethyl-4-{1,2-dihydro-2-oxo-4-(4-nitroxybutyl)-1-pyridinyl}-2H-benzo[b]pyran] | 39.8 | spasmolytic effect on a contraction caused by 80 mM KCl (in words) (dog coronary artery): also exhibited a spasmolytic effect on a contraction caused by 80 mM KCl, though their potencies are lower than those against the contraction caused by 20 mM KCl; IC50 (dog coronary artery; [2]): 0.0316 nM; IC50 (dog coronary artery; [3]): 229 nM
CC1(C)C=C(n2ccc(CO[N+](=O)[O-])cc2=O)c2cc(C#N)ccc2O1 [Compound No. 69, 6-cyano-2,2-dimethyl-4-(1,2-dihydro-2-oxo-4-nitroxymethyl-1-pyridinyl)-2H-benzo[b]pyran] | 3.31 | LD50 [1]: 81.2 mg/kg; spasmolytic effect on a contraction caused by 80 mM KCl (in words) (dog coronary artery): also exhibited a spasmolytic effect on a contraction caused by 80 mM KCl, though their potencies are lower than those against the contraction caused by 20 mM KCl; IC50 (dog coronary artery; [2]): 8.71 nM; IC50 (dog coronary artery; [3]): 12600 nM; EC30 (guinea-pig trachea; Cavia porcellus, leukotriene D4 (3×10^-9 M), dose giving 30% relaxation, papaverine maximal relaxation = 100, value is a negative log, read-out: Relaxing action on the contraction caused by leukotriene D4: -log[EX30 (M)] (converted)): 2.24e-07 M; Emax (guinea-pig trachea; Cavia porcellus, leukotriene D4 (3×10^-9 M), test drug 10^-8 to 3×10^-5 M cumulatively, papaverine maximal relaxation = 100, read-out: Relaxing action on the contraction caused by leukotriene D4: Maximal relaxation %): 93.9%; relaxant effect on isolated guinea pig tracheal smooth muscle contracted by leukotriene D4 / bronchodilator activity (in words) (guinea-pig trachea; leukotriene D4): strong relaxant effect

Now from value to compound, other results behind:

IC50 (rat aorta) [nM] | Structure (SMILES) | other results
138 | CC1(C)C=C(n2cc(CO)ccc2=O)c2cc(C#N)ccc2O1 [Compound No. 162, 6-cyano-2,2-dimethyl-4-(1,2-dihydro-2-oxo-5-hydroxymethyl-1-pyridinyl)-2H-benzo[b]pyran] | 
5.89 | CC1(C)C=C(n2ccc(CO[N+](=O)[O-])cc2=O)c2cc(C(F)(F)F)ccc2O1 [Compound No. 105, 6-trifluoromethyl-2,2-dimethyl-4-(1,2-dihydro-2-oxo-4-nitroxymethyl-1-pyridinyl)-2H-benzo[b]pyran] | 
525 | CC1(C)C=C(n2ccc(CO)cc2=O)c2cc(C#N)ccc2O1 [Compound No. 161, 6-cyano-2,2-dimethyl-4-(1,2-dihydro-2-oxo-4-hydroxymethyl-1-pyridinyl)-2H-benzo[b]pyran] | 
12.6 | CC1(C)C=C(n2ccc(CCCO[N+](=O)[O-])cc2=O)c2cc(C#N)ccc2O1 [Compound No. 77, 6-cyano-2,2-dimethyl-4-{1,2-dihydro-2-oxo-4-(3-nitroxypropyl)-1-pyridinyl}-2H-benzo[b]pyran] | spasmolytic effect on a contraction caused by 80 mM KCl (in words) (dog coronary artery): also exhibited a spasmolytic effect on a contraction caused by 80 mM KCl, though their potencies are lower than those against the contraction caused by 20 mM KCl; IC50 (dog coronary artery; [2]): 2.14 nM; IC50 (dog coronary artery; [3]): 380 nM
51.3 | CC1(C)Oc2ccc(C#N)cc2[C@@H](n2ccc(CO[N+](=O)[O-])cc2=O)[C@@H]1O (relative stereo) [Compound No. 2, trans-3-hydroxy-6-cyano-3,4-dihydro-2,2-dimethyl-4-(1,2-dihydro-2-oxo-4-nitroxymethyl-1-pyridinyl)-2H-benzo[b]pyran] | 
1120 | CC1(C)C=C(n2ccc(CCCO)cc2=O)c2cc(C#N)ccc2O1 [Compound No. 192, 6-cyano-2,2-dimethyl-4-(1,2-dihydro-2-oxo-4-(3-hydroxypropyl)-1-pyridinyl}-2H-benzo[b]pyran] | 
